According to ChEMBL document CHEMBL6127028, “Design and synthesis of TH19P01-Camptothecin based hybrid peptides inducing effective anticancer responses on sortilin positive cancer cells” (Bioorg Med Chem, 2024):
Converted amounts (≈) assume the structure as drawn. The source made the active and inactive calls. The rule behind the calls is not given here. Where a SMILES comes first, the peptide text is derived from it. [ ]: non-standard residue; d: D form. The star is where a group is joined. Succinyl(20-O-(20S)-CPT) = CC[C@@]1(OC(=O)CCC(=O)*)C(=O)OCc2c1cc1n(c2=O)Cc2cc3ccccc3nc2-1; Dnp = O=[N+]([O-])c1ccc(*)c([N+](=O)[O-])c1; DEAC = CCN(CC)c1ccc2cc(C(=O)*)c(=O)oc2c1; Nle = CCCC[C@H](N)C(=O)O

Columns and labels:
[1] = Drug uptake in human MDA-MB-231 cells assessed as increase in blue fluorescence intensity at 10 uM by SYBR Green I staining based live cell imaging analysis; format: ADME; details: mda-mb-231, 10 µM, TDE = time-dependent effect, time 2-12 hrs
MDA-MB-231 [2] = assay: Cytostatic activity against human MDA-MB-231 cells overexpressing SORT1 assessed as reduction in cell viability incubated for 72 hrs by MTT assay; format: functional, cell-based; details: MDA-MB-231, 72 h
[3] = Prodrug conversion in 5% human serum assessed as CPT release by measuring increase in fluorescence intensity at 50 uM measured for 6 days by fluorescence spectrophotometric analysis; format: ADME, cell-free; details: 144 h, time 6 day
[4] = Prodrug conversion in human MDA-MB-231 cells overexpressing SORT1 assessed as CPT release by measuring increase in fluorescence intensity at 1.5 uM measured for 120 hrs by fluorescence based analysis; format: ADME, cell-based; details: mda-mb-231, 120 h
[5] = Prodrug conversion in 5% human serum assessed as CPT release by measuring increase in fluorescence intensity at 50 uM measured at 0 hrs by fluorescence spectrophotometric analysis; format: ADME, cell-free
[6] = Induction of hemolysis in mouse erythrocytes assessed as hemolysis rate at 0.3 uM incubated for 4 hrs; format: toxicity, cell-based, Erythrocyte; details: read-out: Activity
[7] = Cytostatic activity against HEK293T cells assessed as reduction in cell viability incubated for 72 hrs by MTT assay; format: toxicity, cell-based, HEK-293T; details: human
MDA-MB-231 [8] = assay: Anti-proliferative activity against human MDA-MB-231 cells assessed as inhibition of cell proliferation at 0.5XIC50 to 1XIC50 measured after 36 to 72 hrs by time-kill curve analysis; format: functional, cell-based; details: time 36-72 hrs
[9] = Drug uptake in human MDA-MB-231 cells assessed as increase in blue fluorescence intensity at 10 uM measured after 2 to 12 hrs by SYBR Green I staining based live cell imaging analysis; format: ADME; details: mda-mb-231, 10 µM, time 2-12 hrs
[10] = Cytostatic activity against mouse L929 cells assessed as reduction in cell viability incubated for 72 hrs by MTT assay; format: toxicity, cell-based
MDA-MB-231 [11] = assay: Anti-proliferative activity against human MDA-MB-231 cells assessed as inhibition of cell proliferation at 1XIC50 measured after 72 hrs by time-kill curve analysis; format: functional
[12] = Aqueous solubility of the compound in water by UV/Vis spectrophotometry relative to free camptothecin; format: physicochemical; details: buffer
[13] = Induction of hemolysis in mouse erythrocytes assessed as hemolysis rate at 30 uM incubated for 4 hrs; format: toxicity, cell-based, Erythrocyte; details: read-out: Activity
4T1 [14] = assay: Anti-migration activity against mouse 4T1 cells assessed as cell motility at 1.5 uM incubated for 2 hrs followed by PBS washing and incubation in complete medium for 24 hrs by wound healing assay (reference value: 68.9%); format: functional
MDA-MB-231 [15] = assay: Anti-proliferative activity against human MDA-MB-231 cells assessed as inhibition of cell proliferation at 1XIC50 measured at <36 hrs by time-kill curve analysis; format: functional
4T1 [16] = assay: Cytostatic activity against mouse 4T1 cells expressing low SORT1 assessed as reduction in cell viability incubated for 72 hrs by MTT assay; format: functional, cell-based; details: 4T1, 72 h
Erythrocyte [17] = assay: Induction of hemolysis in mouse erythrocytes at 0.03 to 30 uM incubated for 4 hrs; format: toxicity, cell-based; details: dose 0.03-30 µM
MDA-MB-231 [18] = assay: Anti-migration activity against human MDA-MB-231 cells assessed as cell motility at 1.5 uM incubated for 2 hrs followed by PBS washing and incubation in complete medium for 24 hrs by wound healing assay (reference value: 55.3%); format: functional
MDA-MB-231 [19] = assay: Anti-proliferative activity against human MDA-MB-231 cells assessed as inhibition of cell proliferation at 1.5 uM measured for 0 to 72 hrs by time-kill curve analysis; format: functional; details: time 0-72 hrs
Erythrocyte [20] = assay: Induction of hemolysis in mouse erythrocytes at >3 uM incubated for 4 hrs in presence of TH19P01; format: toxicity, cell-based
[21] = Aqueous solubility of the compound in water by UV/Vis spectrophotometry; format: physicochemical
MDA-MB-231 [22] = assay: Anti-proliferative activity against human MDA-MB-231 cells assessed as inhibition of cell proliferation at 1XIC50 measured after 72 hrs in presence of TH19P01 by time-kill curve analysis; format: functional
MDA-MB-231 [23] = assay: Anti-proliferative activity against human MDA-MB-231 cells assessed as inhibition of cell proliferation at 1XIC50 measured for 0 to 72 hrs in presence of TH19P01 by time-kill curve analysis; format: functional, cell-based; details: time 0-72 hrs
4T1 [24] = assay: Cytostatic activity against mouse 4T1 cells expressing low SORT1 assessed as reduction in cell viability incubated for 72 hrs in presence of TH19P01 by MTT assay; format: functional, cell-based; details: 4T1, 72 h
MDA-MB-231 [25] = assay: Cytostatic activity against human MDA-MB-231 cells overexpressing SORT1 assessed as reduction in cell viability incubated for 72 hrs in presence of TH19P01 by MTT assay; format: functional, cell-based; details: MDA-MB-231, 72 h
4T1 [26] = assay: Anti-migration activity against mouse 4T1 cells at 1.5 uM incubated for 2 hrs in presence of TH19P01 followed by PBS washing and incubation in complete medium for 24 hrs by wound healing assay; format: functional, cell-based
[27] = Drug uptake in human MDA-MB-231 cells assessed as increase in blue fluorescence intensity at 10 uM measured after 2 to 12 hrs in presence of TH19P01 by SYBR Green I staining based live cell imaging analysis; format: ADME; details: mda-mb-231, 10 µM, time 2-12 hrs
MDA-MB-231 [28] = assay: Anti-migration activity against human MDA-MB-231 cells assessed as cell motility at 1.5 uM incubated for 2 hrs in presence of TH19P01 followed by PBS washing and incubation in complete medium for 24 hrs by wound healing assay (reference value: 55.3%); format: functional
MDA-MB-231 [29] = assay: Anti-proliferative activity against human MDA-MB-231 cells assessed as inhibition of cell proliferation at 1XIC50 measured for 0 to 72 hrs by time-kill curve analysis; format: functional, cell-based; details: time 0-72 hrs

SMILES	IC50 (MDA-MB-231 [2])	IC50 at 72 h [7]	IC50 at 72 h [10]	inhibition (INH) (MDA-MB-231 [11])	Activity (4T1 [14])	IC50 (4T1 [16])	Activity (Erythrocyte [17])	Activity (MDA-MB-231 [18])	also measured
CCCC[C@H](NC(=O)[C@H](CC(N)=O)NC(=O)[C@H](CCCNC(=N)N)NC(=O)[C@@H](NC(=O)CNC(=O)[C@H](C)NC(=O)[C@H](CCCCNC(=O)c1cc2ccc(N(CC)CC)cc2oc1=O)NC(=O)[C@H](C)NC(=O)[C@H](CCCNC(=N)N)NC(=O)[C@@H](NC(=O)CNC(C)=O)C(C)C)C(C)C)C(=O)N[C@@H](Cc1ccccc1)C(=O)N[C@@H](CCCCNC(C)=O)C(=O)N[C@@H](CO)C(=O)N[C@@H](CCC(=O)O)C(=O)N[C@@H](CO)C(=O)N[C@@H](Cc1ccc(O)cc1)C(N)=O (Ac-GVRAK(DEAC)AGVRN[Nle]FK(Ac)SESY-NH2)	> 100 µM								Drug uptake [1]: Tde
CCCC[C@H](NC(=O)[C@H](CC(N)=O)NC(=O)[C@H](CCCNC(=N)N)NC(=O)[C@@H](NC(=O)CNC(=O)[C@H](C)NC(=O)[C@H](CCCCNC(=O)CCC(=O)O[C@]1(CC)C(=O)OCc2c1cc1n(c2=O)Cc2cc3ccccc3nc2-1)NC(=O)[C@H](CCCCNc1ccc([N+](=O)[O-])cc1[N+](=O)[O-])NC(=O)[C@H](C)NC(=O)[C@H](CCCNC(=N)N)NC(=O)[C@@H](NC(=O)CNC(C)=O)C(C)C)C(C)C)C(=O)N[C@@H](Cc1ccccc1)C(=O)N[C@@H](CCCCNc1ccc([N+](=O)[O-])cc1[N+](=O)[O-])C(=O)N[C@@H](CCCCNC(=O)CCC(=O)O[C@]1(CC)C(=O)OCc2c1cc1n(c2=O)Cc2cc3ccccc3nc2-1)C(=O)N[C@@H](CO)C(=O)N[C@@H](CCC(=O)O)C(=O)N[C@@H](CO)C(=O)N[C@@H](Cc1ccc(O)cc1)C(N)=O (Ac-GVRAK(Dnp)K(Succinyl(20-O-(20S)-CPT))AGVRN[Nle]FK(Dnp)K(Succinyl(20-O-(20S)-CPT))SESY-NH2)	1.52 µM								Drug metabolism [3]: Metabolite_Detected; Drug metabolism [4]: Metabolite_Detected; Drug metabolism [5]: Metabolite_Notdetected
CCCC[C@H](NC(=O)[C@H](CC(N)=O)NC(=O)[C@H](CCCNC(=N)N)NC(=O)[C@@H](NC(=O)CNC(=O)[C@H](C)NC(=O)[C@H](CCCCNC(=O)CCC(=O)O[C@]1(CC)C(=O)OCc2c1cc1n(c2=O)Cc2cc3ccccc3nc2-1)NC(=O)[C@H](C)NC(=O)[C@H](CCCNC(=N)N)NC(=O)[C@@H](NC(=O)CNC(C)=O)C(C)C)C(C)C)C(=O)N[C@@H](Cc1ccccc1)C(=O)N[C@@H](CCCCNC(=O)CCC(=O)O[C@]1(CC)C(=O)OCc2c1cc1n(c2=O)Cc2cc3ccccc3nc2-1)C(=O)N[C@@H](CO)C(=O)N[C@@H](CCC(=O)O)C(=O)N[C@@H](CO)C(=O)N[C@@H](Cc1ccc(O)cc1)C(N)=O (Ac-GVRAK(Succinyl(20-O-(20S)-CPT))AGVRN[Nle]FK(Succinyl(20-O-(20S)-CPT))SESY-NH2)	1.47 µM	11.1 µM	> 100 µM	45.3%	58.6%	2.05 µM	Toxic	13.3%	hemolysis at 4 h, 0.3 µM [6]: 1.5%; Activity (MDA-MB-231 [8]): Dose-Dependent Effect; Drug uptake [9]: Active; fold change (FC) [12]: 90; hemolysis at 4 h, 30 µM [13]: < 5%; inhibition (INH) (MDA-MB-231 [15]): <10%
CCCC[C@H](NC(=O)[C@H](CC(N)=O)NC(=O)[C@H](CCCNC(=N)N)NC(=O)[C@@H](NC(=O)CNC(=O)[C@H](C)NC(=O)[C@H](CCCCN)NC(=O)[C@H](C)NC(=O)[C@H](CCCNC(=N)N)NC(=O)[C@@H](NC(=O)CNC(C)=O)C(C)C)C(C)C)C(=O)N[C@@H](Cc1ccccc1)C(=O)N[C@@H](CCCCN)C(=O)N[C@@H](CO)C(=O)N[C@@H](CCC(=O)O)C(=O)N[C@@H](CO)C(=O)N[C@@H](Cc1ccc(O)cc1)C(N)=O (Ac-GVRAKAGVRN[Nle]FKSESY-NH2)	> 100 µM	> 100 µM	> 100 µM		67.9%	> 100 µM	Toxic	46.3%	inhibition at 1.5 µM (MDA-MB-231 [19]): < 10%
CC[C@@]1(O)C(=O)OCc2c1cc1n(c2=O)Cc2cc3ccccc3nc2-1 [CAMPTOTHECIN]	0.63 µM	< 0.01 µM	15.7 µM	52.8%	69.2%	0.03 µM	Toxic	44.6%	Activity (Erythrocyte [20]): Toxic; solubility [21]: 3.6 µM (≈ 1.25 µg/mL); inhibition (INH) (MDA-MB-231 [22]): 50.8%; Activity (MDA-MB-231 [23]): Active; IC50 (4T1 [24]): < 0.032 µM; IC50 (MDA-MB-231 [25]): 0.72 µM; Activity (4T1 [26]): Active; Drug uptake [27]: Active; Activity (MDA-MB-231 [28]): 37.7%; Activity (MDA-MB-231 [29]): Active
